The subject of this experiment is Proteus mirabilis 29906 (Pm) lysate. The experiment in a line: Inhibition of conversion of choline to TMA in Proteus mirabilis lysate (Example 2). It counts as biochemical. The following applies: Pm lysate 1.5 mg/mL protein, 50 μM d9-choline chloride, 37° C., two hours, d9-TMA by LC-MS/MS; read-out: TMA Inhibition (IC50, mol/L).

Structures can show the parent of a compound that is named as a salt.

Take `C#CC[N+](C)(C)CC(=C)C(=O)OC` [compound 1, 2-(methoxycarbonyl)-N,N-dimethyl-N-(prop-2-yn-1-yl)prop-2-en-1-aminium]: the IC50 was 13.2 nM.
Turning to `C#CC[N+](C)(C)CCCCC(=O)O` [compound 2, 4-carboxy-N,N-dimethyl-N-(prop-2-yn-1-yl)butan-1-aminium], the IC50 came out at 110 nM.
Take `COC(C[N+](C)(C)CCO)OC` [compound 3, N-(2-hydroxyethyl)-2,2-dimethoxy-N,N-dimethylethan-1-aminium]: the IC50 came out at 2400 nM.
Regarding `C#CC[N+](C)(C)CC(OC)OC` [compound 4, N-(2,2-dimethoxyethyl)-N,N-dimethylprop-2-yn-1-aminium], the IC50 amounted to 525 nM.
For the molecule `C#CC[N+](C)(C)CC(O)O` [compound 5, N-(2,2-dihydroxyethyl)-N,N-dimethylprop-2-yn-1-aminium], the IC50 came to 5310 nM.
The same measure for `C#CC[N+](C)(C)CC(OCC)OCC` [compound 6, N-(2,2-diethoxyethyl)-N,N-dimethylprop-2-yn-1-aminium]: 88200 nM; for `C#CC[N+](C)(C)CCCCCC(=O)O` [compound 7, 5-carboxy-N,N-dimethyl-N-(prop-2-yn-1-yl)pentan-1-aminium]: 216 nM.
With `C#CC[N+](C)(C)CC(=C)C(=O)O` [compound 8, 2-carboxy-N,N-dimethyl-N-(prop-2-yn-1-yl)prop-2-en-1-aminium bromide], the IC50 was 76.4 nM.
For the molecule `C#CC[N+](C)(C)CC(N)=O` [compound 9, N-(2-amino-2-oxoethyl)-N,N-dimethylprop-2-yn-1-aminium], the IC50 is 130 nM.
In the case of `C=C(C[N+](C)(C)CCO)C(=O)O` [compound 10, 2-carboxy-N-(2-hydroxyethyl)-N,N-dimethylprop-2-en-1-aminium], the IC50 came to 15500 nM.
In the case of `C=C(C#N)C[N+](C)(C)CCO` [compound 11, 2-cyano-N-(2-hydroxyethyl)-N,N-dimethylprop-2-en-1-aminium], the IC50 worked out at 63.1 nM.
With `C#CC[N+](C)(C)CC(=C)C#N` [compound 12, 2-cyano-N,N-dimethyl-N-(prop-2-yn-1-yl)prop-2-en-1-aminium], the IC50 came to 4.74 nM.
`C#CC[N+](C)(C)CC(=O)C(=O)OC` [compound 13, N-(3-methoxy-2,3-dioxopropyl)-N,N-dimethylprop-2-yn-1-aminium]: the IC50 is 63.1 nM.
As for `C=C(C#N)C[N+]1(C)C2CCCC1CC2` (centres unmarked) [compound 14, 8-(2-cyanoallyl)-8-methyl-8-azabicyclo[3.2.1]octan-8-ium], the IC50 is 44600 nM.
For the molecule `C#CC[N+](C)(C)CCN` [compound 15, 2-aminoethyl-dimethyl-prop-2-ynyl-ammonium, hydrochloride], the IC50 was found to be 3010 nM.
On to `C#CCC[N+](C)(C)CCO` [compound 16, N-(2-hydroxyethyl)-N,N-dimethylbut-3-yn-1-aminium], for which the IC50 was determined as 15700 nM.
Consider `C#CC[N+]1(C)CCC(O)CC1` (centres unmarked) [compound 17, 4-hydroxy-1-methyl-1-(prop-2-yn-1-yl)piperidin-1-ium], for which the IC50 was 124000 nM.
Take `C#CC[N+]1(C)C2CCCC1CC2` (centres unmarked) [compound 18, 8-methyl-8-(prop-2-yn-1-yl)-8-azabicyclo[3.2.1]octan-8-ium]: the IC50 worked out at 1610 nM.
For `C#CC[N+](C)(C)CC(=O)O` [compound 19, N-(carboxymethyl)-N,N-dimethylprop-2-yn-1-aminium], the IC50 was determined as 21.6 nM.
The same measure for `C#CC[N+](C)(C)CC(=O)OC` [compound 20, N-(2-methoxy-2-oxoethyl)-N,N-dimethylprop-2-yn-1-aminium]: 44.1 nM.
To `C#CC[N+](C)(C)CCO` [compound 21, N-(2-hydroxyethyl)-N,N-dimethyl-2-propyn-1-aminium] belongs 30.4 nM.
On to `CC#CC[N+](C)(C)CCO` [compound 22, N-(2-hydroxyethyl)-N,N-dimethyl-2-butyn-1-aminium], for which the IC50 was found to be 152 nM.
Turning to `C=CC[N+](C)(C)CC=C` [compound 23, N,N-dimethyl-N-2-propenyl-2-propen-1-aminium], the IC50 turned out to be 3030 nM.

These data come from US11246844B2, “Methods for inhibiting conversion of choline to trimethylamine (TMA)” (The Procter & Gamble Company, priority 2016, dated 2022).
